Values of other authors in patent publication US11737956B2, “Composition for intracanal medication” (MARUCHI, priority 2016, dated 2023).

Settings: very small amount of dissolution in water

In the case of `[Ca+2].[OH-].[OH-]` [calcium hydroxide], the pH of water is given as 12.4.
